By pKa is commonly meant the negative logarithm of the acid dissociation constant. A high value points to a weaker acid or stronger base.

The conditions of one series: acidic group.
`CC(=O)CCCC(=O)O` had a pKa of 4.66. For `CC1(C)NC(=S)NC1=S`, the pKa was found to be 7.65. As to `CCCCOC(=S)NC(C)=O`, the pKa was 9.25. Take `C=C(/C=C(/C)O)C(C)(C)C`: the pKa was found to be 11. Still for that read-out and setting: to `Oc1ccc2cnncc2c1` belongs 7.95; to `O=C(O)c1cc[nH]n1`, 3.84. On the same count and under the same terms, the same measure for `O=S(=O)([O-])c1ccc(O)c2cn[nH]c12`: 7.6; for `O=C(O)C[C@]1(O)C[C@@H]2C=C[C@H]1C2`: 4.36.

The compound `Cc1cc(C(N)=O)cc(C)[n+]1O` yielded a pKa of 2.08. Same read-out and setting: to `CSc1ccc(C(=O)O)cc1` belongs 4.23. `Cc1nc(N)c2cn[nH]c2n1` had a pKa of 11.3. For the compound `COc1ccc(O)c(CN(C)C)c1`, the pKa came to 11.5.

On to `O=C1[C@H]2CCCC[C@H]2C(=O)N1O`, for which the pKa came out at 6.

Regarding `[NH3+]CCC(=O)NC(Cc1c[nH]c[nH+]1)C(=O)O` (centres undefined), the pKa was determined as 2.96. `O=C(O)C[NH2+]CCc1nnn[nH]1` showed a pKa of 3.28. `NC(=O)Nc1[nH]cnc1C(=O)[O-]` registered a pKa of 12.2. In turn, `CC(=O)N1CS(=O)(=O)C[C@H]1C(=O)O` came in with a pKa of 2.23. The same measure, in the same setting: the same measure for `Oc1c(Cl)c(Cl)cc(Cl)c1C[NH+]1CCOCC1`: 4.92; for `Cc1cc(O)[nH+]c(O)[nH+]1`: 1.2. Compound `Sc1nc2[nH]cnc2c[nH+]1` displayed a pKa of 0.5.

Compound `Oc1ccc(F)cc1` yielded a pKa of 9.88. With `Nc1ccc(-c2nnn[nH]2)cc1`, the pKa turned out to be 4.55. `O=C(O)CCCc1c[nH]c[nH+]1` gave a pKa of 4.26. As for `N#CC(C#N)=NNc1ccccc1O`, the pKa stood at 6.1.

`O=C(Nc1nnc(-c2ccccc2)s1)c1ccccc1` came in with a pKa of 6.8. The compound `O=c1oc2cc(O)ccc2cc1-c1ccccc1` displayed a pKa of 7.8. The compound `CCC(C)(O)C(C(=O)O)c1ccc(-c2ccccc2)cc1` (centres undefined) displayed a pKa of 3.41.

`CC1(C)CCC(C(=O)O)=[N+]1[O-]` displayed a pKa of 2.8.

On to `N#Cc1c(-c2nc3ccccc3s2)c(=O)oc2cc(O)ccc12`, for which the pKa came to 6.38. Still for that read-out and setting: the same measure for `CNC[C@H](O)c1cccc(O)c1`: 9.84. Regarding `O=C(CC(=O)c1ccccc1)Nc1ccc([N+](=O)[O-])cc1`, the pKa worked out at 8.91.

For `CC(C)(C)c1ccc(C(=O)/C=C/C(=O)O)cc1`, the pKa was 3.42.

In the case of `CCC1(CC)OC(=O)NC1=O`, the pKa amounted to 5.7. On the same count and under the same terms, to `Cc1cc(Cl)ccc1O` belongs 9.6; to `Oc1cc[n+](O)cc1`, 2.4. For the compound `O=C1Cc2c1ccc(O)c2Br`, the pKa came out at 5.75. On the same count and under the same terms, to `O=C(O)Cc1cccs1` belongs 3.85; to `CC(=O)c1ccccc1C(=O)O`, 4.15. On the same count and under the same terms, the same measure for `O=C(O)C(=O)c1ccccc1`: 1.22. `Cc1cc(Cc2cc(C)c(O)c(C)c2)c([O-])c([N+](=O)[O-])c1`: the pKa was determined as 11.1.

In turn, `CC(O)[C@@H]1C[NH2+][C@H](C(=O)O)[C@H]1CC(=O)O` (some centres undefined) displayed a pKa of 2.94. Compound `CC(=O)OCC(=N/[O-])/C(C)=N/O` showed a pKa of 11.5.

For `CCCCN[N+](=O)[O-]`, the pKa is 6.48.

`N#CC(C#N)=C(C#N)NC(C#N)=C(C#N)C#N` returned a pKa of 2.1. Same read-out and setting: the same measure for `COc1ccccc1/C=C/C=N\O`: 11.3; for `OC(O)=C(O)c1ccccc1`: 6.39.

In turn, `O=C(NO)c1cccc2ccccc12` showed a pKa of 7.7.

As to `ONc1ccccc1`, the pKa is 10.7. For the compound `CC(=O)/C(Cl)=N/O`, the pKa was 7.9. Still for that read-out and setting: the same measure for `CC(I)[N+](=O)[O-]` (centres undefined): 7.24; for `[O-]c1nc(C(F)(F)F)nc2nc[nH]c12`: 11.2; for `C[C@]12CC[C@@H]3c4ccc(O)cc4CC[C@H]3[C@@H]1C[C@@H](O)[C@@H]2O`: 10.8. Compound `COc1ccc(O)cc1` came in with a pKa of 10.2. Same read-out and setting: to `Nc1c(C(=O)O)[nH+]cn1[C@H]1O[C@@H](CO)[C@H](O)[C@@H]1O` belongs 2.9; to `Cc1cccc(I)c1C(=O)O`, 2.7; to `OCC[n+]1cc(Br)c2ccccc2c1`, 13.1. `CN(C)C(=O)n1nc(C(C)(C)C)nc1SCC(=O)O` gave a pKa of 3.49. The same measure, in the same setting: the same measure for `COc1cnc(N)s1`: 4.98; for `O=C(O)C(c1ccc(-c2ccccc2)cc1)C(O)c1ccccc1` (centres undefined): 4.25; for `CC1(C)C(=O)CC(=O)CC1=O`: 4.2. Same read-out and setting: to `O=NCC(=O)c1ccncc1` belongs 7.8; to `O=C(O)c1ccccc1F`, 3.6.

`Cc1nnc(NS(=O)(=O)c2ccc(N)cc2)s1` had a pKa of 5.46. Still for that read-out and setting: to `CC(C)(C)c1cc(/C=C/Cl)cc(C(C)(C)C)c1O` belongs 11.8; to `O=C(O)c1cccc([N+](=O)[O-])c1O`, 2.16; to `CCC#CC#CC(=O)O`, 1.91. On the same count and under the same terms, the same measure for `CC(=N\[O-])/C(C)=N/O`: 11.9.

The compound `CN1C(=O)N/C(=C\c2ccccc2)C1=O` yielded a pKa of 9.6. `[O-]c1nc(S)c2[nH]cnc2n1`: the pKa stood at 11.4. Still for that read-out and setting: the same measure for `Nc1c(O)cccc1O`: 9.3; for `O=S(=O)([O-])c1cc(O)c2cn[nH]c2c1`: 8.1; for `Oc1ccc(Nc2ccc(O)cc2)cc1`: 9.44. In the case of `CN(C)c1ncnc2[nH]ncc12`, the pKa stood at 11.

Regarding `CCNC(=O)/C=C(/[70SH])c1ccccc1`, the pKa came out at 4.73. On the same count and under the same terms, to `OCC(Cl)Cl` belongs 13.2.

The same series, now with this note: basic group.
`Cc1cc(-c2ccccc2)nn(C)/c1=N/CCN1CCOCC1` gave a pKa of 10.4. Still for that read-out and setting: to `Oc1ccc2cnncc2c1` belongs 3.94. `NCC(=O)c1ccc(O)cc1`: the pKa worked out at 8.05.

`O=C(CN1CCOCC1)NCc1ccccc1` displayed a pKa of 4.98. With `Cc1nc(N)c2cn[nH]c2n1`, the pKa is 5.41. The same measure, in the same setting: the same measure for `CCCCNCc1ccccc1`: 9.46. The same measure, in the same setting: to `CN1CCC(n2nc(-c3ccccc3)c(Cc3ccccc3)c2[O-])CC1` belongs 9.13; to `COc1ccc(O)c(CN(C)C)c1`, 8.7. `[O-]c1ncnc2[nH]cnc12`: the pKa was 8.71. Same read-out and setting: to `CCC(=O)C(CC(C)N1CCOCC1)(c1ccccc1)c1ccccc1` (centres undefined) belongs 6.89; to `NCC/C=C/C(=O)[O-]`, 9.95; to `CC1(C)CN1`, 5.37. For the compound `Nc1cc([NH3+])ccc1O`, the pKa was 3.05.

`[NH3+]c1ccc(-c2nc3ccccc3s2)cc1` displayed a pKa of 0.1. `OC1(c2ccco2)CN2CCC1CC2` (centres undefined) showed a pKa of 9.06. On the same count and under the same terms, the same measure for `COc1c(CN)cc(C)cc1CN`: 8.85; for `CCOC(=O)C(C)N` (centres undefined): 7.8; for `CN(C)c1ccc2ccccc2c1`: 4.57. The compound `NC(=O)Nc1[nH]cnc1C(=O)[O-]` showed a pKa of 4.9. On the same count and under the same terms, the same measure for `CC(CN1CCCCC1)C(C#N)(c1ccccc1)c1ccccc1` (centres undefined): 7.54; for `Cn1c(-c2ccccn2)nc2ccccc21`: 4.47. Still for that read-out and setting: the same measure for `C#CCN1CCOCC1`: 5.54; for `CC(CC(C#N)(c1ccccc1)c1ccccc1)N1CCOCC1` (centres undefined): 6.1; for `Nc1ccncc1Br`: 7.15. Compound `[NH3+]CCC(=O)NC(Cc1c[nH]cn1)C(=O)[O-]` (centres undefined) displayed a pKa of 7.08. Take `CCOc1ccc2[nH]cnc2c1`: the pKa worked out at 5.57. On the same count and under the same terms, to `C[n+]1nc(-c2ccccc2)ccc1NCCN1CCOCC1` belongs 5.31. The same measure, in the same setting: to `CC(C)C(=O)C(C)(C)CN(C)C` belongs 9.3; to `C[NH+]1CCC[C@H]1c1cccnc1`, 3.16; to `c1ccc(CN(Cc2ccccc2)Cc2ccccc2)cc1`, 7.44.

As for `CN(C(=O)c1ccccc1)c1ccncc1`, the pKa was found to be 4.68. For the compound `c1ccc2nc3ccccc3cc2c1`, the pKa turned out to be 5.48. On the same count and under the same terms, the same measure for `C[C@H]([NH3+])[C@@H](C)N`: 6.84; for `CNC[C@H](O)c1cccc(O)c1`: 8.77; for `O=Cc1cc(-c2ccccc2)nnc1NCC[NH+]1CCOCC1`: 2.6. On the same count and under the same terms, the same measure for `CCCCC[C@H](C)N`: 10.8; for `CC[C@]12CCCN3CC[C@@]4(c5cccc(OC)c5N(C(C)=O)[C@H]4CC1)[C@@H]32`: 7.57; for `O=[N+]([O-])c1ccc2[nH]c(-c3ccco3)nc2c1`: 2.64.

For `CSc1ccnc2ccccc12`, the pKa is 5.81. As to `CN1CCc2cccc(c2)CCc2ccc1cc2`, the pKa was determined as 6.76.

The compound `CNC(C)Cc1ccc(OC)c(OC)c1` (centres undefined) came in with a pKa of 9.8. Same read-out and setting: the same measure for `NCCC[NH2+]CCO`: 8.19; for `C[NH+](C)c1ccc(/N=N/c2ccncc2)cc1`: 3.4; for `COc1ccc(-c2ncc(-c3ccccc3)o2)cc1`: 1.25. The same measure, in the same setting: to `CCCCC(N)C(=O)[O-]` (centres undefined) belongs 9.89; to `ONc1ccccc1`, -0.32; to `CC12CN3CC(C)(C1)CC(C)(C3)C2`, 10.7. Turning to `[O-]c1nc(C(F)(F)F)nc2nc[nH]c12`, the pKa amounted to 5.1. The compound `CCCN(CCO)CC(O)CC` (centres undefined) came in with a pKa of 9. On the same count and under the same terms, the same measure for `Nc1cc(Cl)cc(C[NH3+])c1`: 3.54; for `CCN(CC)Cc1cc(Cl)ccc1[O-]`: 11.2.

Compound `Cc1nc2[nH]c(=O)[nH]c(=O)c2[nH]1` had a pKa of 3.1.

`CC(O)CNC(C)(C)C` (centres undefined) came in with a pKa of 10.

Compound `CCN1CCC[C@@H]1CNC(=O)c1c([O-])c(Cl)cc(Cl)c1OC` yielded a pKa of 9.12. The compound `Cc1cnc(N)s1` yielded a pKa of 5.71. Still for that read-out and setting: the same measure for `Cc1nnc(NS(=O)(=O)c2ccc(N)cc2)s1`: 2.19. The same measure, in the same setting: the same measure for `COc1cc(S(C)=O)ccc1-c1cn2ccncc2n1` (centres undefined): 2.88; for `c1ccc(-c2ccc(NCCN3CCOCC3)nn2)cc1`: 6.74.

`CSc1ccc(N)c(I)c1` showed a pKa of 2.45.

`Nc1c(O)cccc1O`: the pKa came out at 5.1. On to `CC(O)CN(CCO)C(C)(C)C` (centres undefined), for which the pKa was found to be 9.2. The compound `C[C@@H]1CCN2CC=C[C@H]12` showed a pKa of 10.6.

Take `[S-]c1ccnc([S-])n1`: the pKa came out at 11.2. Same read-out and setting: the same measure for `CCC(C)NC(C)CC` (centres undefined): 10.9.

Compound `Cc1n[nH]c2cc(N)ccc12` returned a pKa of 4.

As to `CN(C)c1ncnc2[nH]ncc12`, the pKa was found to be 4.53. As to `[NH3+]CCCCCc1ccccn1`, the pKa amounted to 5.7. The same measure, in the same setting: the same measure for `C1N2CN3CN1C[NH+](C2)C3`: -1.7; for `Cc1ccc2cccc(C)c2n1`: 4.1.

For the origin of these results see the pKa sets of Baltruschat and Czodrowski (2020).
